These results are taken from ChEMBL document CHEMBL5257090, “Modulation of in Vitro SARS-CoV-2 Infection by Stephania tetrandra and Its Alkaloid Constituents” (J Nat Prod, 2023).

The source made the active and inactive calls. The rule behind the calls is not given here. Bounds are passed on as bounds.

Data set [1] relates to HEK-293T. Put plainly: Cytotoxicity against HEK293T cells at 10 uM assessed as reduction in cell viability by CellTiter-Glo assay. Format: toxicity, cell-based. As to conditions: human.
Data set [2] concerns HEK-293T. Description: Cytotoxicity against HEK293T cells at 0.1 uM assessed as reduction in cell viability by CellTiter-Glo assay. The conditions noted are these: human. Type of data set: toxicity, cell-based.
The test system of data set [3] is SARS-CoV-2. Put plainly: Antiviral activity against SARS-CoV-2 infected in HEK293T cells expressing ACE2/TMPRSS2 assessed as reduction in virus-induced cytopathic effect at 5 to 10 uM measured after 48 hrs by cellular ATP assay. As to conditions: Severe acute respiratory syndrome coronavirus 2, dose 5-10 µM. Type of data set: functional, organism-based.
Data set [4] has as its system SARS-CoV-2. Description: Antiviral activity against SARS-CoV-2 infected in HEK293T cells expressing ACE2/TMPRSS2 assessed as reduction in virus-induced cytopathic effect measured after 48 hrs by cellular ATP assay. Format: functional, organism-based. As to conditions: Severe acute respiratory syndrome coronavirus 2, HEK-293T. In general terms: Protection from cytopathic effect is a common read-out in antiviral testing.

Data set [5] deals with HEK-293T. Description: Cytotoxicity against HEK293T cells at 2.5 to 10 uM assessed as reduction in cell viability by CellTiter-Glo assay. Format: toxicity, cell-based. The conditions noted are these: human, dose 2.5-10 µM. Background: Cellular ATP, detected with luciferase, serves as a proxy for viable cell number.
Data set [6] has as its system SARS-CoV-2. Put plainly: Antiviral activity against SARS-CoV-2 infected in HEK293T cells expressing ACE2/TMPRSS2 assessed as reduction in virus-induced cytopathic effect at 2.5 uM measured after 48 hrs by cellular ATP assay. Also noted: scale not given: the % may be the effect or the level left. Format: functional, Severe acute respiratory syndrome coronavirus 2.
Data set [7] has as its system SARS-CoV-2. Description: Antiviral activity against SARS-CoV-2 infected in HEK293T cells expressing ACE2/TMPRSS2 assessed as reduction in virus-induced cytopathic effect at 10 uM measured after 48 hrs by cellular ATP assay. Format: functional, Severe acute respiratory syndrome coronavirus 2. More on the design: scale not given: the % may be the effect or the level left.

Data set [8] in a line: Induction of phospholipidosis in African green monkey Vero E6 cells expressing ACE-2/TMPRSS2 at 100 to 300 nM measured after 24 hrs by DAPI staining based fluorescence microscopic analysis. Type of data set: toxicity, cell-based. The conditions noted are these: chlorocebus sabaeus, vero c1008, 24 h, 0.3 µM, dose 100-300 nM.
Data set [9] is described as follows: Induction of phospholipidosis in HEK293T cells expressing ACE-2/TMPRSS2 at 100 to 300 nM measured after 24 hrs by DAPI staining based fluorescence microscopic analysis. Format: toxicity, cell-based. The conditions noted are these: human, hek-293t, 0.3 µM, dose 100-300 nM.
Data set [10] relates to SARS-CoV-2. Description: Antiviral activity against SARS-CoV-2 delta infected in African green monkey Vero E6 cells expressing ACE-2/TMPRSS2 assessed as reduction in virus-induced cytopathic effect at 0.31 to 2.5 uM measured after 48 hrs by cellular ATP assay. Format: functional, organism-based. The conditions noted are these: Severe acute respiratory syndrome coronavirus 2, dose 0.31-2.5 µM.

Data set [11] concerns SARS-CoV-2. Description: Antiviral activity against wild-type SARS-CoV-2 USA-WA1/2020 NR-52281 infected in African green monkey Vero E6 cells expressing ACE-2/TMPRSS2 assessed as reduction in virus-induced cytopathic effect at 0.31 to 2.5 uM measured after 48 hrs by cellular ATP assay. Type of data set: functional, organism-based. As to conditions: Severe acute respiratory syndrome coronavirus 2, dose 0.31-2.5 µM.

Data set [12] is described as follows: Cytotoxicity against HEK293T cells assessed as reduction in cell viability by CellTiter-Glo assay. Format: toxicity, cell-based, HEK-293T. The conditions noted are these: human.
Data set [13] is described as follows: Induction of phospholipidosis in HEK293T cells expressing ACE-2/TMPRSS2 at 1 uM measured after 24 hrs by DAPI staining based fluorescence microscopic analysis. Format: toxicity, cell-based. As to conditions: human, hek-293t.
Data set [14] has as its system HEK-293T. Description: Downregulation of ORF1ab gene expression in HEK293T cells expressing ACE-2/TMPRSS2 infected with SARS-CoV-2 assessed as fold change preincubated with compound for 2 hrs followed by viral infection and measured after 24 hrs relative to MPV. Format: functional, cell-based. As to conditions: Homo sapiens, time 26.0 hrs.
A short description of data set [15]: Permeability of the compound in pH 7.4 measured after 5 hrs by LC-MS based PAMPA assay. Type of data set: ADME. The conditions noted are these: pH 7.4, 5 h. (PAMPA measures passive passage across an artificial lipid membrane.)
The test system of data set [16] is HEK-293T. Put plainly: Downregulation of viral nucleocapsid N gene expression in HEK293T cells expressing ACE-2/TMPRSS2 infected with SARS-CoV-2 assessed as fold change preincubated with compound for 2 hrs followed by viral infection and measured after 24 hrs relative to MPV. As to conditions: Homo sapiens, time 26.0 hrs. Type of data set: functional, cell-based.

Data set [17] concerns HEK-293T. Put plainly: Up-regulation of leukocyte proliferation genes in HEK293T cells expressing ACE-2/TMPRSS2 infected with SARS-CoV-2 preincubated with compound for 2 hrs followed by viral infection and measured after 24 hrs by gene ontology analysis. The conditions noted are these: Homo sapiens, time 26.0 hrs. Format: functional, cell-based.

`CCC(CC)COC(=O)[C@H](C)N[P@](=O)(OC[C@H]1O[C@@](C#N)(c2ccc3c(N)ncnn23)[C@H](O)[C@@H]1O)Oc1ccccc1`: the Activity entry in the data set on HEK-293T [1] is given as “Toxic”; in the data set on HEK-293T [2] it was “Non-Toxic”.
For the molecule `CN1[C@@H](CC(=O)c2ccccc2)CCC[C@H]1C[C@H](O)c1ccccc1`, the result in the data set with SARS-CoV-2 [3] was inactive.
In the case of `O=C(O)[C@H]1O[C@@H](Oc2cc3oc(-c4ccccc4)cc(=O)c3c(O)c2O)[C@H](O)[C@@H](O)[C@@H]1O`, the outcome with SARS-CoV-2 [3] was inactive.
By IC50 is commonly meant the point on the concentration scale where inhibition reaches its midpoint. With `O=c1cc(-c2ccccc2)oc2cc(O)c(O)c(O)c12` [BAICALEIN], the IC50 in the data set on SARS-CoV-2 [4] turned out to be 5100 nM.
Take `CN(C)C(=O)COC(=O)Cc1ccc(OC(=O)c2ccc(NC(=N)N)cc2)cc1` [CAMOSTAT]: the Activity result in the data set with HEK-293T [5] was “Non-Toxic”; in the data set on SARS-CoV-2 [6], 23%; in the data set with SARS-CoV-2 [7], 54.5%.
Broadly, the CC50 is the concentration giving 50% cytotoxicity. For the molecule `COc1ccc2cc1Oc1ccc(cc1)C[C@H]1c3c(cc4c(c3Oc3cc5c(cc3OC)CCN(C)[C@@H]5C2)OCO4)CCN1C` [CEPHARANTHINE], the Activity entry is recorded as “Non-Toxic” in data set [8], “Non-Toxic” in [9] and “Toxic” in [13]. For the same molecule, the outcome with SARS-CoV-2 [10] and in the data set with HEK-293T [14] was Active. Besides, the outcome in the data set with SARS-CoV-2 [11] was inactive. Also, the CC50 in data set [12] worked out at 2100 nM. Moreover, in the data set with SARS-CoV-2 [4], the IC50 was 143 nM. Also, in [15], the permeability entry is recorded as “Permeable”.
As for `COc1ccc2cc1Oc1ccc(cc1)C[C@H]1c3cc(c(OC)cc3CCN1C)Oc1c(OC)c(OC)cc3c1[C@H](C2)N(C)CC3` [FANCHININ], the figures for the Activity result in data set [8], in data set [9] and in data set [13] were “Non-Toxic”, “Non-Toxic” and “Toxic”, respectively. Moreover, the result in the data set with SARS-CoV-2 [11] was inactive. Further, in data set [12], the CC50 was > 1000 nM. Besides, the IC50 with SARS-CoV-2 [4] stood at 284 nM. Besides, the result with HEK-293T [16], in the data set with HEK-293T [14] and in the data set on HEK-293T [17] was Active. The permeability result in data set [15] is reported as “Permeable”.
In the case of `COc1ccc2cc1Oc1ccc(cc1)C[C@H]1c3cc(c(OC)cc3CCN1C)Oc1c(O)c(OC)cc3c1[C@H](C2)N(C)CC3` [FANGCHINOLINE], the Activity entry in data set [8] is given as “Non-Toxic”; in [9], “Non-Toxic”; in data set [13], “Toxic”. Further, in the data set with SARS-CoV-2 [11], the outcome was inactive. Moreover, in data set [12], the CC50 is > 1000 nM. Besides, the half-inhibitory concentration (IC50) with SARS-CoV-2 [4] was 193 nM. For the same molecule, the result with HEK-293T [14] and with HEK-293T [17] was Active.
